Drawing on patent publication US20250042862A1, “AROMATIC HETEROCYCLIC COMPOUND AND APPLICATION THEREOF” (Shanghai Institute of Materia Medica, Chinese Academy of …, priority 2021, published 2025), this text covers IC50 for 30 compounds.

Molecules are shown by their SMILES.

This assay has as its target human recombinant LSD1 protein (Homo sapiens (Human), UniProt O60341). Kind of assay: In vitro enzyme inhibition activity assay - LSD1 (Lance Ultra TR-FRET). It is filed as biochemical. The following applies: all compounds tested in the form of hydrochloride. The method, then: The purpose of this experiment was to test the in vitro inhibitory activity of the compounds against LSD1. The human recombinant LSD1 protein used in the experiment was purchased from Active Motif, and the enzyme level activity testing assay of LSD1 was performed using the Lance Ultra LSD1 Histone H3 Lysine 4 Demethylase Assay Kit (PerkinElmer). Tris-buffer (50 mMTris-HCl, 50 mMNaCl, 0.01% Tween-20, 1 mM DTT, 10 μM FAD, 10% glycerol, pH 9.0) was first prepared, and after preparation, the LSD1 fractions required for test were placed in this buffer and incubated for one hour at room temperature; the fractions included 4 μL of substrate solution ([…] Bio-H3K4me2, 1-24aa), 4 μL of enzyme solution (4 nM LSD1), and 2 μL of inhibitor in a 384-well microplate. After these operations, another 5 μL of assay mixture containing Eu-labeled H3K4me0 antibody and ULight-Streptavidin anti-biotin protein was added to the system, after which the fluorescence intensity of the components to be tested was detected by using Envision (PerkinElmer) in TR-FRET mode (excitation wavelength of 320 nm, emission wavelength of 620 nm). The test was repeated a total of three times to minimize errors. The final IC50 data were calculated by the software GraphPad Prism 5, and finally the sigmoidal dose-response (variable slope) method was used to obtain the fitted curve.
The LSD1 inhibitory activities of representative compounds of the present application as well as the positive control compound CC90011 were provided in Table 2. All compounds were tested in the form of hydrochloride.
For the compound `Cc1c(F)cccc1-c1ccc2nc(NC[C@H]3CCNC3)nc(-c3ccc(C#N)c(F)c3)c2c1` [Compound 47, (S)-2-fluoro-4-(6-(3-fluoro-2-methylphenyl)-2-((pyrrolidin-3-ylmethyl)amino)quinazolin-4-yl)benzonitrile], the concentration for half-maximal inhibition (IC50) fell in the range of 30 to 300 nM.
Regarding `Cc1cccc(F)c1-c1ccc2nc(NC[C@H]3CCNC3)nc(-c3ccc(C#N)c(F)c3)c2c1` [Compound 48, (S)-2-fluoro-4-(6-(2-fluoro-6-methylphenyl)-2-((pyrrolidin-3-ylmethyl)amino)quinazolin-4-yl)benzonitrile], the IC50 is no more than 30 nM.
The figure for `Cc1nn(C)c(C)c1-c1ccc2nc(NC[C@H]3CCNC3)nc(-c3ccc(C#N)c(F)c3)c2c1` [Compound 49, (S)-2-fluoro-4-(2-((pyrrolidin-3-ylmethyl)amino)-6-(1,3,5-trimethyl-1H-pyrazol-4-yl)quinazolin-4-yl)benzonitrile] is 30 to 300 nM.
Next, `N#Cc1ccc(-c2nc(NC[C@H]3CCNC3)nc3ccc(-c4c(F)cccc4F)cc23)cc1F` [Compound 50, (S)-4-(6-(2,6-difluorophenyl)-2-((pyrrolidin-3-ylmethyl)amino)quinazolin-4-yl)-2-fluorobenzonitrile]: 30 to 300 nM; `N#Cc1ccc(-c2nc(NC[C@H]3CCNC3)nc3ccc(-c4c(Cl)cccc4Cl)cc23)cc1F` [Compound 51, (S)-4-(6-(2,6-dichlorophenyl)-2-((pyrrolidin-3-ylmethyl)amino)quinazolin-4-yl)-2-fluorobenzonitrile]: no more than 30 nM.
The figure for `N#Cc1ccc(-c2nc(NC[C@H]3CCNC3)nc3ccc(-c4c(Cl)cccc4C(F)(F)F)cc23)cc1F` [Compound 52] is 30 to 300 nM.
As to `Cc1cccc(Cl)c1-c1ccc2nc(NC[C@H]3CCNC3)nc(-c3ccc(C#N)c(F)c3)c2c1` [Compound 53], the IC50 was no more than 30 nM.
Next, `N#Cc1ccc(-c2nc(NC[C@H]3CCNC3)nc3ccc(-c4c(F)cccc4C(F)(F)F)cc23)cc1F` [Compound 54, (S)-4-(6-(2-fluoro-6-(trifluoromethylphenyl)-2-(pyrrolidin-3-ylmethyl)amino)quinazolin-4-yl)-2-fluorobenzonitrile]: no more than 30 nM; `N#Cc1ccc(-c2nc(NC[C@H]3CCNC3)nc3ccc(-c4c(F)cccc4Cl)cc23)cc1F` [Compound 55]: no more than 30 nM; `N#Cc1ccc(-c2nc(NC[C@H]3CCNC3)nc3ccc(-c4cc(F)ccc4C(F)(F)F)cc23)cc1F` [Compound 56, (S)-4-(6-(5-fluoro-2-(trifluoromethyl)-2-(pyrrolidin-3-ylmethyl)amino)quinazolin-4-yl)-2-fluorobenzonitrile]: 30 to 300 nM.
`N#Cc1ccc(-c2nc(NC[C@H]3CCNC3)nc3ccc(-c4cccc(F)c4C(F)(F)F)cc23)cc1F` [Compound 57, (S)-4-(6-(3-fluoro-2-(trifluoromethylphenyl)-2-(pyrrolidin-3-ylmethyl)amino)quinazolin-4-yl)-2-fluorobenzonitrile]: the IC50 is no more than 30 nM.
Next, `Cc1cccc(-c2ccc3nc(NC[C@H]4CCNC4)nc(-c4ccc(C#N)c(F)c4)c3c2)c1C(F)(F)F` [Compound 59, (S)-2-fluoro-4-(6-(3-methyl-2-(trifluoromethyl)phenyl)-2-((pyrrolidin-3-ylmethyl)amino)quinazolin-4-yl)benzonitrile]: 30 to 300 nM; `N#Cc1ccc(-c2nc(NC[C@H]3CCNC3)nc3ccc(-c4c(F)ccc(O)c4F)cc23)cc1F` [Compound 60]: 30 to 300 nM; `N#Cc1ccc(-c2nc(NC[C@H]3CCNC3)nc3ccc(-c4cccc(O)c4F)cc23)cc1F` [Compound 61, (S)-2-fluoro-4-(6-(2-fluoro-3-hydroxyphenyl)-2-((pyrrolidin-3-ylmethyl)amino)quinazolin-4-yl)benzonitrile]: 30 to 300 nM.
For the compound `CC1(N)CCN(c2nc(-c3ccc(C#N)c(F)c3)c3cc(-c4c(F)cccc4C(F)(F)F)ccc3n2)CC1` [Compound 63, 4-(2-(4-Amino-4-methylpiperidin-1-yl)-6-(2-fluoro-6-(trifluoromethyl)phenyl)quinazolin-4-yl)-2-fluorobenzonitrile], the IC50 was no more than 30 nM.
The figure for `N#Cc1ccc(-c2nc(N3CC4C(N)C4C3)nc3ccc(-c4c(F)cccc4C(F)(F)F)cc23)cc1F` (stereo not drawn) [Compound 65, 4-(2-(6-Amino-3-azabicyclo[3.1.0]hexan-3-yl)-6-(2-fluoro-6-(trifluoromethyl)phenyl)quinazolin-4-yl)-2-fluorobenzonitrile] is 30 to 300 nM; for `CNC1CCN(c2nc(-c3ccc(C#N)c(F)c3)c3cc(-c4c(F)cccc4C(F)(F)F)ccc3n2)CC1` [Compound 66, 2-Fluoro-4-(6-(2-fluoro-6-(trifluoromethyl)phenyl)-2-(4-(methylamino)piperidin-1-yl)quinazolin-4-yl)benzonitrile] it is no more than 30 nM; for `N#Cc1ccc(-c2nc(N3CC[C@H](N)[C@H](F)C3)nc3ccc(-c4c(F)cccc4C(F)(F)F)cc23)cc1F` [Compound 67, 4-(2-((3R,4S)-4-amino-3-fluoropiperidin-1-yl)-6-(2-fluoro-6-(trifluoromethyl)phenyl)quinazolin-4-yl)-2-fluorobenzonitrile] it is no more than 30 nM.
Next, `C[C@@H]1CN(c2nc(-c3ccc(C#N)c(F)c3)c3cc(-c4c(F)cccc4C(F)(F)F)ccc3n2)CC[C@H]1N` [Compound 68, 4-(2-((3R,4R)-4-amino-3-methylpiperidin-1-yl)-6-(2-fluoro-6-(trifluoromethyl)phenyl)quinazolin-4-yl)-2-fluorobenzonitrile]: no more than 30 nM; `N#Cc1ccc(-c2nc(N3C4CCC3CC(N)C4)nc3ccc(-c4c(F)cccc4C(F)(F)F)cc23)cc1F` (stereo not drawn) [Compound 69, 4-(2-(3-amino-8-azabicyclo[3.2.1]octan-8-yl)-6-(2-fluoro-6-(trifluoromethyl)phenyl)quinazolin-4-yl)-2-fluorobenzonitrile]: no more than 30 nM; `N#Cc1ccc(-c2nc(N3CCCC(N)C3)nc3ccc(-c4c(F)cccc4C(F)(F)F)cc23)cc1F` (stereo not drawn) [Compound 70, 4-(2-(3-aminopiperidin-1-yl)-6-(2-fluoro-6-(trifluoromethyl)phenyl)quinazolin-4-yl)-2-fluorobenzonitrile]: no more than 30 nM.
Next, `CC1(C)CN(c2nc(-c3ccc(C#N)c(F)c3)c3cc(-c4c(F)cccc4C(F)(F)F)ccc3n2)CCC1N` (stereo not drawn) [Compound 71, 4-(2-(4-amino-3,3-dimethylpiperidin-1-yl)-6-(2-fluoro-6-(trifluoromethyl)phenyl)quinazolin-4-yl)-2-fluorobenzonitrile]: no more than 30 nM; `N#Cc1ccc(-c2nc(N3CCCC(N)CC3)nc3ccc(-c4c(F)cccc4C(F)(F)F)cc23)cc1F` (stereo not drawn) [Compound 72, 4-(2-(4-aminoazepan-1-yl)-6-(2-fluoro-6-(trifluoromethyl)phenyl)quinazolin-4-yl)-2-fluorobenzonitrile]: no more than 30 nM; `CN(C)C1CCN(c2nc(-c3ccc(C#N)c(F)c3)c3cc(-c4c(F)cccc4C(F)(F)F)ccc3n2)CC1` [Compound 73, 4-(2-(4-(Dimethylamino)piperidin-1-yl)-6-(2-fluoro-6-(trifluoromethyl)phenyl)quinazolin-4-yl)-2-fluorobenzonitrile]: no more than 30 nM.
With `N#Cc1ccc(-c2nc(N3CCC[C@@H](N)C3)nc3ccc(-c4c(F)cccc4C(F)(F)F)cc23)cc1F` [Compound 74, (R)-4-(2-(3-aminopiperidin-1-yl)-6-(2-fluoro-6-(trifluoromethyl)phenyl)quinazolin-4-yl)-2-fluorobenzonitrile], the IC50 was no more than 30 nM.
The figure for `N#Cc1ccc(-c2nc(N3CCC[C@H](N)C3)nc3ccc(-c4c(F)cccc4C(F)(F)F)cc23)cc1F` [Compound 75, (S)-4-(2-(3-aminopiperidin-1-yl)-6-(2-fluoro-6-(trifluoromethyl)phenyl)quinazolin-4-yl)-2-fluorobenzonitrile] is 30 to 300 nM; for `N#Cc1ccc(-c2nc(N3CCC4NCCC4C3)nc3ccc(-c4c(F)cccc4C(F)(F)F)cc23)cc1F` (stereo not drawn) [Compound 76, 2-Fluoro-4-(6-(2-fluoro-6-(trifluoromethyl)phenyl)-2-(octahydro-5H-pyrrolo[3,2-c]pyridin-5-yl)quinazolin-4-yl)benzonitrile] it is no more than 30 nM.
The figure for `N#Cc1ccc(-c2nc(N3CCC4(CCCN4)CC3)nc3ccc(-c4c(F)cccc4C(F)(F)F)cc23)cc1F` [Compound 77, 2-Fluoro-4-(6-(2-fluoro-6-(trifluoromethyl)phenyl)-2-(1,8-diazaspiro[4.5]dec-8-yl)quinazolin-4-yl)benzonitrile] is no more than 30 nM; for `N#Cc1ccc(-c2nc(N3CCC(N)CC3)nc3cc(F)c(-c4ccccc4F)cc23)cc1F` [Compound 78, 4-(2-(4-aminopiperidin-1-yl)-7-fluoro-6-(2-fluorophenyl)quinazolin-4-yl)-2-fluorobenzonitrile] it is no more than 30 nM; for `N#Cc1ccc(-c2nc(N3CCC(N)CC3)nc3cc(F)c(-c4ccccc4C(F)(F)F)cc23)cc1F` [Compound 79, 4-(2-(4-Aminopiperidin-1-yl)-7-fluoro-6-(2-(trifluoromethyl)phenyl)quinazolin-4-yl)-2-fluorobenzonitrile] it is 30 to 300 nM.
